Among the data in ChEMBL document CHEMBL1142734, “Biological properties of D- and L-1-deoxyazasugars” (J Med Chem, 2005) are inhibition and IC50 values, retold here.

As a reminder, the inhibition is the change of the read-out against control, counted positive when it falls. The IC50 is the concentration that inhibits the measured activity by half.

Assay [1] addresses T1, Lysosomal alpha-mannosidase (Homo sapiens) (UniProt O00754).
T1 sequence (whole entry): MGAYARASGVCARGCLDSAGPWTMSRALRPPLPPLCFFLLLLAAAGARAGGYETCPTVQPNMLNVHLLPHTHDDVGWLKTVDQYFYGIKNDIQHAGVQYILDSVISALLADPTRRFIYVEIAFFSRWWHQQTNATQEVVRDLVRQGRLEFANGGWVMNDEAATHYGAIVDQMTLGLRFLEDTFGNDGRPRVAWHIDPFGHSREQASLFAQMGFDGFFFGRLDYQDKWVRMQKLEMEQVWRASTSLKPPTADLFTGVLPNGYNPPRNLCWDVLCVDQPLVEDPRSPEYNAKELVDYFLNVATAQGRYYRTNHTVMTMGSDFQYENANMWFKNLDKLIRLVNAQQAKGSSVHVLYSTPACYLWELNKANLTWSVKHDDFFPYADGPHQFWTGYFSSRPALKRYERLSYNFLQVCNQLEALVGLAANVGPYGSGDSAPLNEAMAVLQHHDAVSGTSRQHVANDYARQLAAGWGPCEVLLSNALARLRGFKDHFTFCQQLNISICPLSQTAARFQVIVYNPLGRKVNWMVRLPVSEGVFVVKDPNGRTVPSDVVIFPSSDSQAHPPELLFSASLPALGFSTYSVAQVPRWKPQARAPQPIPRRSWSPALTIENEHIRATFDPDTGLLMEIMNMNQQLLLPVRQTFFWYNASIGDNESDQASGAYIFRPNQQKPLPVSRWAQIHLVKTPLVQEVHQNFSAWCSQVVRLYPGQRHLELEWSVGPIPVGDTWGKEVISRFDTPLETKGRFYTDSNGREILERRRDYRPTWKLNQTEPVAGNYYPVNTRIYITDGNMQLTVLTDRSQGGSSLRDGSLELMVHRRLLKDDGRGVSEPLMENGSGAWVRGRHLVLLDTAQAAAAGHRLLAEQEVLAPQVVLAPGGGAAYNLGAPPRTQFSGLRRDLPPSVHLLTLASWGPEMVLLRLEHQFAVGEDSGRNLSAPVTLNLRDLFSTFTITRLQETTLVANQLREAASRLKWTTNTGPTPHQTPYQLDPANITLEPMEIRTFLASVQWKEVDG
In words: Percent inhibition of human alpha-mannosidase at 1000 uM.

Assay [2] concerns the target T2, Beta-mannosidase (Rattus norvegicus) (UniProt Q4FZV0).
T2 sequence (whole entry): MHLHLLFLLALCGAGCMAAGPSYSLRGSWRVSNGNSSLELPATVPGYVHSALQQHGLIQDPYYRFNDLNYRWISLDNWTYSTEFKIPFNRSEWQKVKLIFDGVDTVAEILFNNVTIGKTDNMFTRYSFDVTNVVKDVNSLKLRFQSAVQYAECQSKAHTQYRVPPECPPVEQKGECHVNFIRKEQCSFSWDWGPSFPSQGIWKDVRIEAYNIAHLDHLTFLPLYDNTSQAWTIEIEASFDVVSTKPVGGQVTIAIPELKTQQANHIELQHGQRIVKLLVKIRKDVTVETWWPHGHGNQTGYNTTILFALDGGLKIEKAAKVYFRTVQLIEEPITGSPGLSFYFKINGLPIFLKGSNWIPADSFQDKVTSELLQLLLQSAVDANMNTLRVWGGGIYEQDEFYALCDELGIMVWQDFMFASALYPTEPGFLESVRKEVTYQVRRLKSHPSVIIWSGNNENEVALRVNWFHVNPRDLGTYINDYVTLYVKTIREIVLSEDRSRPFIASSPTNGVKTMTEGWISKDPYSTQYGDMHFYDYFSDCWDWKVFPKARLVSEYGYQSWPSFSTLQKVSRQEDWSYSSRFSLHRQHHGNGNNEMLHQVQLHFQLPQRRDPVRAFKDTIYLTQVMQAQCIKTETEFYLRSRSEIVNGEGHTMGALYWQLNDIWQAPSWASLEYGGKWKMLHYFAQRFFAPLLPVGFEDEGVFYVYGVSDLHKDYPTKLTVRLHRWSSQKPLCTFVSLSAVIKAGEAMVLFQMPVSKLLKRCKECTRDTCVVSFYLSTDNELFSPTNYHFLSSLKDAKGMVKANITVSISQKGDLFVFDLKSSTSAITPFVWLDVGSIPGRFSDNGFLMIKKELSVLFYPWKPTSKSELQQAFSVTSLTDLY
As to the kind of experiment: Percent inhibition of beta-mannosidase of rat epididymis at 1000 uM.

For assay [3], the target named is T3, Tissue alpha-L-fucosidase (Bos taurus) (UniProt Q2KIM0).
T3 sequence (whole entry): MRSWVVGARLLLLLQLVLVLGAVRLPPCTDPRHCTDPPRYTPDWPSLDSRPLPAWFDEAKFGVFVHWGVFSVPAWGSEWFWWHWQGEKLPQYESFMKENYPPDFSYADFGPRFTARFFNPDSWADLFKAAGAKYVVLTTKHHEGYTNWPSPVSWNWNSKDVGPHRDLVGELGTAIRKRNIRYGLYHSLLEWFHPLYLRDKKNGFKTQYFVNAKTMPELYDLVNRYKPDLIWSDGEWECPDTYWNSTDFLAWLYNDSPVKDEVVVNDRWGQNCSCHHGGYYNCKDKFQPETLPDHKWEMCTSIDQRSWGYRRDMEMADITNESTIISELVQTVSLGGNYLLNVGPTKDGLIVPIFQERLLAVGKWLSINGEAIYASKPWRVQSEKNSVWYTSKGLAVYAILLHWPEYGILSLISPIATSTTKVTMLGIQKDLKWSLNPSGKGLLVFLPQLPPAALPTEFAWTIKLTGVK
The following applies: 1000 uM.

For assay [4], the target named is Sucrase-isomaltase, intestinal (Rattus norvegicus) (UniProt P23739). The following applies: 1000 uM.
Sequence of Sucrase-isomaltase, intestinal (Rattus norvegicus) (P23739 1-1013 limits assumed): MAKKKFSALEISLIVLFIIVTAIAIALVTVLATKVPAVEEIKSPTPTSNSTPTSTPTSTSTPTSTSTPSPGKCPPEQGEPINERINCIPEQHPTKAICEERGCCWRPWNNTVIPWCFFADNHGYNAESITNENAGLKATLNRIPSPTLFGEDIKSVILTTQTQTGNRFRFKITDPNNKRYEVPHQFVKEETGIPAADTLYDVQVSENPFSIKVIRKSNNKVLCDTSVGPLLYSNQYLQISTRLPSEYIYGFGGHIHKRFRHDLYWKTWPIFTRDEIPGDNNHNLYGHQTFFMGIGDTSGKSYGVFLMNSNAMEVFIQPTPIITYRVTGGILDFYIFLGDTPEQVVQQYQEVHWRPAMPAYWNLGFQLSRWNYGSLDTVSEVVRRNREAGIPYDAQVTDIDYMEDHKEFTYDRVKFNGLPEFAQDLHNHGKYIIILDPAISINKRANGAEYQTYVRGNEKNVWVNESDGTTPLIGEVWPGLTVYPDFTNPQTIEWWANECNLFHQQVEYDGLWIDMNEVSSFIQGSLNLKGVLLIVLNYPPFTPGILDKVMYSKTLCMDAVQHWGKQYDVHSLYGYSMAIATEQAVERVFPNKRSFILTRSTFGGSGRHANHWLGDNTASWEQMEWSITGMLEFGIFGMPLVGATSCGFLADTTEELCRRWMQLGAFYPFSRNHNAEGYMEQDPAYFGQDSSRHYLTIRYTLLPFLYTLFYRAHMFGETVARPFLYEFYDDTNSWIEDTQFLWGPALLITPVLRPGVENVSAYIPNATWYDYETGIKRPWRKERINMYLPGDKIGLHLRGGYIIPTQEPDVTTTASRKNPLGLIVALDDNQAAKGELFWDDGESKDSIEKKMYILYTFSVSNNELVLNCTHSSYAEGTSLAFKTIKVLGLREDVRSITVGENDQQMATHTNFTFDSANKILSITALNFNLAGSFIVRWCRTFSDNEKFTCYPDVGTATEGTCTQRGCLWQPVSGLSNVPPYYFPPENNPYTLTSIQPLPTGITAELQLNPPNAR
Sequence of Sucrase-isomaltase, intestinal (Rattus norvegicus) (P23739 1014-1841 limits assumed): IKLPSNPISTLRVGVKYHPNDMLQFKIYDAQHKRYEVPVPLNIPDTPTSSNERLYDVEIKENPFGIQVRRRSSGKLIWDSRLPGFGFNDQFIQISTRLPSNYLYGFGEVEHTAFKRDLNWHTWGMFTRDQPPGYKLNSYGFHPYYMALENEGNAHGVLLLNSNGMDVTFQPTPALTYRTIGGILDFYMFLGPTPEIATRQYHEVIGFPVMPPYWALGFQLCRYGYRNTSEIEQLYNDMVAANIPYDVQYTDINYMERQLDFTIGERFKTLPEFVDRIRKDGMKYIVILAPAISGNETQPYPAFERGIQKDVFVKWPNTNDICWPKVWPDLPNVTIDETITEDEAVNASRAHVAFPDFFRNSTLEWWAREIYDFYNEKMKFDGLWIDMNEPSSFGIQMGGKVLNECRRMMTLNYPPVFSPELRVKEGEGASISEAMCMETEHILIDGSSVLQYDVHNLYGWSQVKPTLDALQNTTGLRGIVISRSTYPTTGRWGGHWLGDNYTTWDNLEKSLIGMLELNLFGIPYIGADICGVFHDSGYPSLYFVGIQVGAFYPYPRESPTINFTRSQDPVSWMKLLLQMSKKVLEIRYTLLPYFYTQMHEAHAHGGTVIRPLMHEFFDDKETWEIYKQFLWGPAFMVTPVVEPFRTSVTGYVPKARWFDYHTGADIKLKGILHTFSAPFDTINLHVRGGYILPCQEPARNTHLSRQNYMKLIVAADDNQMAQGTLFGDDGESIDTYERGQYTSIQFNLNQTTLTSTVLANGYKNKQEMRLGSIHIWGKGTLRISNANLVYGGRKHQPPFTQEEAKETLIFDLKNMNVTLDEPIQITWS
A short description of assay [5]: Inhibitory concentration against alpha-galactosidase of coffee bean. Also noted: species or system Coffea arabica.
The target in assay [6] is T4, Alpha-galactosidase A (Homo sapiens) (UniProt P06280).
T4 sequence (whole entry): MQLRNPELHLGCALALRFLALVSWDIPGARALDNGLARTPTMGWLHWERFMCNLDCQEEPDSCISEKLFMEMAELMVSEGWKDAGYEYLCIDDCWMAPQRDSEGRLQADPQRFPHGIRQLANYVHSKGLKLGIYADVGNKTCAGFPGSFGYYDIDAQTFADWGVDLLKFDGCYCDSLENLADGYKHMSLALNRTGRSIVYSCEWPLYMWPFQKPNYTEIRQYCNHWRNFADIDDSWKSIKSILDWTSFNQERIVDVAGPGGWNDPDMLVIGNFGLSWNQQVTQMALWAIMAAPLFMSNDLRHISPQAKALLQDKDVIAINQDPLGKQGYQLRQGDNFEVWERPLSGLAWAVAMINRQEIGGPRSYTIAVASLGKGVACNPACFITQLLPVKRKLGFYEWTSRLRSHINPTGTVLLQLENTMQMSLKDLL
Conditions: 1000 uM.

Regarding `OC[C@H]1NC[C@H](O)[C@H](O)[C@H]1O`, the inhibition in assay [1], in assay [2], in assay [3] and in assay [4] was below 50% throughout. Also, in assay [5], the IC50 is 160 µM.

In the case of `OC[C@@H]1NC[C@@H](O)[C@@H](O)[C@H]1O`, the inhibition in assay [2], in assay [3], in assay [6] and in assay [4] was below 50% in each case. In assay [5], this compound gave an IC50 of 290 µM.

In the case of `OC[C@H]1NC[C@H](O)[C@@H](O)[C@H]1O`, the inhibition in assay [1], in assay [2], in assay [3] and in assay [4] was below 50% throughout. For the same compound, the IC50 in assay [5] is 0.003 µM.

With `OC[C@H]1NC[C@H](O)[C@@H](O)[C@@H]1O` [DUVOGLUSTAT], the inhibition in assay [1] and in assay [6] was below 50% throughout. Further, half-maximal inhibition in assay [5] (IC50) was put at 880 µM.

Consider `OC[C@H]1NC[C@@H](O)[C@H](O)[C@H]1O`, for which the inhibition in assay [1], in assay [2], in assay [3] and in assay [4] was below 50% in each case. Also, the IC50 in assay [5] was 67 µM.

Take `OC[C@@H]1NC[C@H](O)[C@@H](O)[C@@H]1O`: the inhibition in assay [1], in assay [2], in assay [3], in assay [6] and in assay [4] was below 50% throughout.

Take `OC[C@@H]1NC[C@@H](O)[C@@H](O)[C@@H]1O`: the inhibition in assay [1], in assay [2], in assay [6] and in assay [4] was below 50% in each case.

For the compound `OC[C@H]1NC[C@@H](O)[C@@H](O)[C@@H]1O` [DEOXYMANNOJIRIMYCIN], the inhibition in assay [1], in assay [2] and in assay [6] was below 50% in each case.

Turning to `OC[C@H]1NC[C@H](O)[C@H](O)[C@@H]1O`, the inhibition in assay [1], in assay [2], in assay [3], in assay [6] and in assay [4] was below 50% throughout. Besides, the IC50 in assay [5] came out at 260 µM.

Turning to `OC[C@@H]1NC[C@@H](O)[C@H](O)[C@H]1O`, the inhibition in assay [1], in assay [2], in assay [3] and in assay [6] was below 50% in each case.

On to `OC[C@@H]1NC[C@H](O)[C@H](O)[C@H]1O`, for which the inhibition in assay [1], in assay [2], in assay [3], in assay [6] and in assay [4] was below 50% each time.

As to `OC[C@@H]1NC[C@@H](O)[C@H](O)[C@@H]1O`, the inhibition in assay [1], in assay [2] and in assay [4] was below 50% each time. In assay [5], this compound displayed an IC50 of 13 µM.
